According to patent publication US8546377B2 (AbbVie Inc., priority 2009, dated 2013):
Read-outs that look alike come from different tables or passages of the source.

Tests used:
5HT2C receptors = biological target: T1, 5HT2C receptors (Homo sapiens, UniProt P28335); assay: Human 5-HT2C functional assay in CHO-K1 cells (calcium flux, FLIPR); format: cell-based; parameters: expressed in transfected cells; host or cells: CHO-K1 cells; conditions: for Emax: percentage relative to the effect of serotonin
T1 sequence (P28335 33-458): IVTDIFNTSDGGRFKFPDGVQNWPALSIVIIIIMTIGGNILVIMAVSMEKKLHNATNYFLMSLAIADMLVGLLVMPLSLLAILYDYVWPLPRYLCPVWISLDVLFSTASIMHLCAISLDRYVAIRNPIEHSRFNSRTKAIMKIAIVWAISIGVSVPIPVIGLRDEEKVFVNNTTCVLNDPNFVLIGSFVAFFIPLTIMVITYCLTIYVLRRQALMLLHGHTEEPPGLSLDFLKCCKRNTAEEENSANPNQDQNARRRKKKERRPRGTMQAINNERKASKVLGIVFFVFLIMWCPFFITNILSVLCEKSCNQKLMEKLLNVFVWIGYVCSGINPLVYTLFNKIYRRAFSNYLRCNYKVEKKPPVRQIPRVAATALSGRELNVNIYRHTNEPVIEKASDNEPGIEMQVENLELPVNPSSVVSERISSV
Protocol: (§1) (iii) Human 5-HT2C and 5-HT2B Functional Assay in CHO-K1 Cells
(§2) CHO-K1 cells over-expressing 5HT2C or 5HT2B receptors were grown in 1272 cm^2 flasks to 70-80% confluency in UltraCHO media supplemented with 1% dialyzed fetal bovine serum (FBS), 250 μg/mL zeocin, 100 U/mL penicillin/streptomycin, and 400 μg/mL geneticin. The cells were dissociated from the flasks using 0.05% trypsin, resuspended in freezing media and stored in liquid nitrogen until use. Calcium flux experiments were done using frozen cells. The cells were diluted in media containing 1% dialyzed FBS and 100 U/mL penicillin/streptomycin and plated into 384-well poly-D-Lysine coated plates (15,000 cells/well). Then the plates were incubated overnight in a cell incubator at 37° C., 5% CO2. On the next day, the growth media was replaced with media without FBS and further incubated overnight. On day three, the changes in intracellular Ca^2+ were determined using calcium sensitive fluorescent dye, Ca4 (MDS Analytical Technologies, Sunnyvale, Calif.) by loading 15 μL of diluted dye with 2.5 mM probenecid into the cells containing media and incubated at room temperature for 60 minutes in dark.
(§3) Fluorescence measurements were read at 25° C. at an excitation wavelength of 480 nm and an emission wavelength of 530 nm in FLIPR (MDS). Baseline fluorescence was measured for the first 10 seconds and then 15 μL of 4× concentrations of serotonin/test compounds was added to the cell plate. The fluorescence intensity was captured every second for the first 1 minute followed by every 5 seconds for an additional 2 minutes. The increase in fluorescent response was determined and was normalized to the response of serotonin. The concentration response of compounds was done from a starting concentration of 10 μM, 1:10 dilution across 6 wells with a final dimethyl sulfoxide concentration of 0.2% and was fitted using a 4-parameter logistic equation. The concentration at which a compound exerts half its maximal effect was named as ‘effective concentration 50’ or ‘EC50’.
(§4) Emax is the maximum functional response or efficacy expressed as a percentage relative to the effect of serotonin.

5HT2B receptors = biological target: T2, 5HT2B receptors (Homo sapiens, UniProt P41595); assay: Human 5-HT2B functional assay in CHO-K1 cells (calcium flux, FLIPR); format: cell-based
T2 construct: expressed in transfected cells; host or cells: CHO-K1 cells
Protocol: as §1, §2, §3, §4

[1] = CHO-K1 cells over-expressing 5HT2C, calcium flux, read-out: EC50 (μM), 5-HT2c Agonist Activity
[2] = CHO-K1 cells, read-out: Emax (%), 5-HT2c Agonist Activity
[3] = CHO-K1 cells over-expressing 5HT2B, calcium flux, read-out: EC50 (μM), 5-HT2B Agonist Activity
[4] = CHO-K1, read-out: Emax (%), 5-HT2c Agonist Activity, CHO-K1 cells
[5] = CHO-K1 cells, percentage relative to the effect of serotonin, read-out: Emax (%), 5-HT2B Agonist Activity
[6] = CHO-K1, read-out: Emax (%), 5-HT2B Agonist Activity

T2 sequence (P41595 whole entry): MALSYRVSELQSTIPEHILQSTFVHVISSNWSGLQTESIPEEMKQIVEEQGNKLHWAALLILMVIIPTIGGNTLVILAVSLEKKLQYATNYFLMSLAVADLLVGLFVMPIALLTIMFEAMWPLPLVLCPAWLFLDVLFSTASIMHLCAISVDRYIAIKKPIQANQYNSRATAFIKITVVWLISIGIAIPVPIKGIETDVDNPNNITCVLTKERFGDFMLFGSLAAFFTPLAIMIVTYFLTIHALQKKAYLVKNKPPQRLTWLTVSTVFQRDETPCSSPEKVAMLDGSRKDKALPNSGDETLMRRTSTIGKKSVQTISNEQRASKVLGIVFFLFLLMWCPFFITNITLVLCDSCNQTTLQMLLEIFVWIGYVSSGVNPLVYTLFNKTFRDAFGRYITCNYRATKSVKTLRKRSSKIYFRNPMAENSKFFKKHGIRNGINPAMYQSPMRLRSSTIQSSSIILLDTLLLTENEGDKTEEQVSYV

Row | SMILES | EC50 (5HT2C receptors; [1]) | Emax (5HT2C receptors; [2]) | EC50 (5HT2B receptors; [3]) | Emax (5HT2B receptors; [5]) | EC50 (5HT2C receptors) | Emax (5HT2C receptors; [4]) | EC50 (5HT2B receptors) | Emax (5HT2B receptors; [6])
1 | CC(O)c1cccc(-c2ccc3c(c2)OCC[C@H]2CNCCN32)c1 (stereo partly drawn) [Example 229, 1-{3-[(4aS)-2,3,4,4a,5,6-hexahydro-1H-pyrazino[2,1-d][1,5]benzoxazepin-9-yl]phenyl}ethanol] | 0.02 µM | 100% | > 10 µM |  |  |  |  | 
2 | COc1ccc2c(c1)OCC[C@H]1CN(C)CCN21 [Example 232, (4aS)-9-methoxy-3-methyl-2,3,4,4a,5,6-hexahydro-1H-pyrazino[2,1-d][1,5]benzoxazepine] |  |  |  |  | 0.05 µM | 50% | > 10 µM | 
3 | Cc1ccc2c(c1)OCC[C@H]1CNCCN21 [Example 133, (4aS)-9-methyl-2,3,4,4a,5,6-hexahydro-1H-pyrazino[2,1-d][1,5]benzoxazepine] |  |  |  |  | 0.01 µM | 100% | > 10 µM | 
4 | Cn1cc(-c2ccc3c(c2)N2CCNCC2CC(=O)N3)cn1 (stereo not drawn) [Example 60, 10-(1-methyl-1H-pyrazol-4-yl)-1,2,3,4,4a,5-hexahydropyrazino[1,2-a][1,5]benzodiazepin-6(7H)-one] | 0.4 µM | > 120% | 3 µM | 50% |  |  |  | 
5 | CN1CCN2c3ccccc3OCC[C@@H]2C1 [Example 268, (4aR)-3-methyl-2,3,4,4a,5,6-hexahydro-1H-pyrazino[2,1-d][1,5]benzoxazepine] |  |  |  |  | 0.01 µM | 95% | 0.2 µM | 50%
6 | Clc1cc(Cl)c2c(c1)N1CCNC[C@@H]1CCO2 [Example 225, (4aS)-8,10-dichloro-2,3,4,4a,5,6-hexahydro-1H-pyrazino[2,1-d][1,5]benzoxazepine] |  |  |  |  | 0.01 µM | 70% | 0.04 µM | 50%
7 | c1cc(-c2ccc3c(c2)N2CCNC[C@@H]2CCO3)co1 [Example 224, (4aS)-10-(3-furyl)-2,3,4,4a,5,6-hexahydro-1H-pyrazino[2,1-d][1,5]benzoxazepine] | 0.1 µM | 85% | 0.4 µM | 40% |  |  |  | 
8 | C1=C(c2ccc3c(c2)N2CCNC[C@@H]2CCO3)CCOC1 [Example 210, (4aS)-10-(3,6-dihydro-2H-pyran-4-yl)-2,3,4,4a,5,6-hexahydro-1H-pyrazino[2,1-d][1,5]benzoxazepine] | 0.01 µM | > 120% | 1 µM | 20% |  |  |  | 
9 | Clc1ccc2c(c1)OCC[C@H]1CNCCN21 [Example 179, (4aS)-9-chloro-2,3,4,4a,5,6-hexahydro-1H-pyrazino[2,1-d][1,5]benzoxazepine] |  |  |  |  | 0.008 µM | > 120% | > 10 µM | 
10 | O=C1C[C@@H]2CNCCN2c2cccc(F)c2N1 [Example 83, (4aR)-8-fluoro-1,2,3,4,4a,5-hexahydropyrazino[1,2-a][1,5]benzodiazepin-6(7H)-one] |  |  |  |  | 0.763 µM | > 120% | 1.05 µM | 27%
11 | Clc1cc2c(cc1Cl)N1CCNC[C@@H]1CCO2 [Example 214, (4aS)-9,10-dichloro-2,3,4,4a,5,6-hexahydro-1H-pyrazino[2,1-d][1,5]benzoxazepine] |  |  |  |  | 0.002 µM | > 120% | 0.03 µM | 60%
12 | O=C1CC2CNCCN2c2cc(-c3ccc4ccccc4c3)ccc2N1 (stereo not drawn) [Example 57, 10-(2-naphthyl)-1,2,3,4,4a,5-hexahydropyrazino[1,2-a][1,5]benzodiazepin-6(7H)-one] | 0.9 µM | 100% | > 10 µM |  |  |  |  | 
13 | O=C1CC2CNCCN2c2cc(CCc3cc(F)cc(F)c3)ccc2N1 (stereo not drawn) [Example 147, 10-[2-(3,5-difluorophenyl)ethyl]-1,2,3,4,4a,5-hexahydropyrazino[1,2-a][1,5]benzodiazepin-6(7H)-one] | 0.01 µM | > 120% | > 10 µM |  |  |  |  | 
14 | CC(O)c1ccc(-c2ccc3c(c2)OCC[C@H]2CNCCN32)cc1 (stereo partly drawn) [Example 228, 1-{4-[(4aS)-2,3,4,4a,5,6-hexahydro-1H-pyrazino[2,1-d][1,5]benzoxazepin-9-yl]phenyl}ethanol] | 0.009 µM | 100% | > 10 µM |  |  |  |  | 
15 | c1cc(-c2ccncc2)c2c(c1)N1CCNC[C@@H]1CCO2 [Example 247, (4aS)-8-(pyridin-4-yl)-2,3,4,4a,5,6-hexahydro-1H-pyrazino[2,1-d][1,5]benzoxazepine] |  |  |  |  | 0.007 µM | 85% | > 10 µM | 

Further lines, with some results ahead:

Row | EC50 (5HT2C receptors; [1]) | Emax (5HT2C receptors; [2]) | EC50 (5HT2B receptors; [3]) | Emax (5HT2B receptors; [5]) | SMILES | EC50 (5HT2C receptors) | Emax (5HT2C receptors; [4]) | EC50 (5HT2B receptors) | Emax (5HT2B receptors; [6])
16 | 0.005 µM | > 120% | > 10 µM |  | O=C1CC2CNCCN2c2cc(CCc3ccccc3C(F)(F)F)ccc2N1 (stereo not drawn) [Example 146, 10-{2-[2-(trifluoromethyl)phenyl]ethyl}-1,2,3,4,4a,5-hexahydropyrazino[1,2-a][1,5]benzodiazepin-6(7H)-one] |  |  |  | 
17 | 0.4 µM | > 120% | > 10 µM |  | Cc1ccc(-c2ccc3c(c2)N2CCNC[C@@H]2CCO3)cc1 [Example 191, (4aS)-10-(4-methylphenyl)-2,3,4,4a,5,6-hexahydro-1H-pyrazino[2,1-d][1,5]benzoxazepine] |  |  |  | 
18 | 0.004 µM | 110% | > 10 µM |  | O=C1C[C@H]2CNCCN2c2cc(OCCc3cccc(C(F)(F)F)c3)ccc2N1 [Example 173, (4aS)-10-{2-[3-(trifluoromethyl)phenyl]ethoxy}-1,2,3,4,4a,5-hexahydropyrazino[1,2-a][1,5]benzodiazepin-6(7H)-one] |  |  |  | 
19 | 1 µM | 110% | > 10 µM |  | O=C1CC2CNCCN2c2cc(-c3cnn(Cc4ccccc4)c3)ccc2N1 (stereo not drawn) [Example 56, 10-(1-benzyl-1H-pyrazol-4-yl)-1,2,3,4,4a,5-hexahydropyrazino[1,2-a][1,5]benzodiazepin-6(7H)-one] |  |  |  | 
20 | 0.02 µM | 110% | 0.09 µM | 80% | O=C1CC2CNCCN2c2cc(-c3ccoc3)ccc2N1 (stereo not drawn) [Example 69, 10-(3-furyl)-1,2,3,4,4a,5-hexahydropyrazino[1,2-a][1,5]benzodiazepin-6(7H)-one] |  |  |  | 
21 | 0.008 µM | > 120% | > 10 µM |  | C[C@H](Cc1ccccc1)Oc1ccc2c(c1)N1CCNC[C@@H]1CC(=O)N2 [Example 165, (4aS)-10-{[(2R)-1-phenylpropan-2-yl]oxy}-1,2,3,4,4a,5-hexahydropyrazino[1,2-a][1,5]benzodiazepin-6(7H)-one] |  |  |  | 
22 | 0.2 µM | 80% | > 10 µM |  | CCOC(=O)c1ccc2c(c1)N1CCNCC1CC(=O)N2 (stereo not drawn) [Example 50, ethyl 6-oxo-1,2,3,4,4a,5,6,7-octahydropyrazino[1,2-a][1,5]-benzodiazepine-10-carboxylate] |  |  |  | 
23 | 0.001 µM | > 120% | 0.5 µM | 20% | O=C1C[C@H]2CNCCN2c2cc(OCCc3cccc(Cl)c3)ccc2N1 [Example 175, (4aS)-10-[2-(3-chlorophenyl)ethoxy]-1,2,3,4,4a,5-hexahydropyrazino[1,2-a][1,5]benzodiazepin-6(7H)-one] |  |  |  | 
24 | 0.002 µM | 100% | 1 µM | 10% | Cc1cccc(CCOc2ccc3c(c2)N2CCNC[C@@H]2CC(=O)N3)c1 [Example 176, (4aS)-10-[2-(3-methylphenyl)ethoxy]-1,2,3,4,4a,5-hexahydropyrazino[1,2-a][1,5]benzodiazepin-6(7H)-one] |  |  |  | 
25 | 0.004 µM | 88% |  |  | O=C1CC2CNCCN2c2cc(/C=C/c3ccccc3F)ccc2N1 (stereo not drawn) [Example 141, 10-[(E)-2-(2-fluorophenyl)vinyl]-1,2,3,4,4a,5-hexahydropyrazino[1,2-a][1,5]benzodiazepin-6(7H)-one] |  |  |  | 
